The source of these data is ChEMBL document CHEMBL5649166, “RIP3 induces apoptosis independent of pronecrotic kinase activity” (Mol Cell, 2014).

Experiment [1] addresses SRSF protein kinase 1 (Homo sapiens) (UniProt Q96SB4). Briefly: Residual activity of human SRPK1 using GRSRSRSRSR as substrate at 1 uM in presence of 32P-ATP by Hotspot assay relative to control.
The target of experiment [2] is T1, Beta-adrenergic receptor kinase 1 (Homo sapiens) (UniProt P25098).
T1 sequence (whole entry): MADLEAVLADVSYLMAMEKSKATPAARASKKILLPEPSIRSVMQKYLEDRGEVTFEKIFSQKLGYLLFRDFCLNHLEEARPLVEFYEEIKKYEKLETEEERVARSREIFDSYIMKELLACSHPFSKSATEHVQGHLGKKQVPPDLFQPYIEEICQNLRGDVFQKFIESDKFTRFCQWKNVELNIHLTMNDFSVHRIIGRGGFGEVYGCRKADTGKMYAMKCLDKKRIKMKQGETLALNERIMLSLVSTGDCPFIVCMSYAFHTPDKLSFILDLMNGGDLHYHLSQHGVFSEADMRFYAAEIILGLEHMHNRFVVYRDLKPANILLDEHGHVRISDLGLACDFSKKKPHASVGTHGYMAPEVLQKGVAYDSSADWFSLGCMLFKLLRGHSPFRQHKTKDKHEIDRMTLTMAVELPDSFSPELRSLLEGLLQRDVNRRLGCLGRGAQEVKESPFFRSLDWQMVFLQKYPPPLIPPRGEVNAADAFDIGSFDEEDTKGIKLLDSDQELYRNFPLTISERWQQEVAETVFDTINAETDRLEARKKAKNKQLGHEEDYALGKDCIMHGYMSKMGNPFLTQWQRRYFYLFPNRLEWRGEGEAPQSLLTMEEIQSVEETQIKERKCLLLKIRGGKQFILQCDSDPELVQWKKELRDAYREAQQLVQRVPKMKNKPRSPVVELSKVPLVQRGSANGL
Briefly: Inhibition of human GRK2 using casein as substrate at 1 uM in presence of 32P-ATP by Hotspot assay relative to control; values are per cent of control.

Experiment [3] deals with T2, Dual specificity mitogen-activated protein kinase kinase 6 (Homo sapiens) (UniProt P52564).
T2 sequence (whole entry): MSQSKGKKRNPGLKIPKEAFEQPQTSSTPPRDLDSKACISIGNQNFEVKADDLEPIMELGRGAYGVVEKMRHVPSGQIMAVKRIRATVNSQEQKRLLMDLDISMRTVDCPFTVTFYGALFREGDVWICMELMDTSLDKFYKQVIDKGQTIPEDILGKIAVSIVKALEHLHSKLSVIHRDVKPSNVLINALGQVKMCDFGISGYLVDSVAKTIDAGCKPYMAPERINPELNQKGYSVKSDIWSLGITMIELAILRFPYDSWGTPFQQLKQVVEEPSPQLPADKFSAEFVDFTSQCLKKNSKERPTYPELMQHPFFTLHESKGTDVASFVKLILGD
Briefly: Inhibition of human MKK6 using p38a (K53A) as substrate at 1 uM in presence of 32P-ATP by Hotspot assay relative to control; values are per cent of control.

Experiment [4] deals with Death-associated protein kinase 2 (Homo sapiens) (UniProt Q9UIK4). Nature of the experiment: Inhibition of human DAPK2 using KKLNRTLSFAEPG as substrate at 1 uM in presence of 32P-ATP by Hotspot assay relative to control; values are per cent of control.
Sequence of Death-associated protein kinase 2 (Homo sapiens) (Q9UIK4 whole entry, looked up): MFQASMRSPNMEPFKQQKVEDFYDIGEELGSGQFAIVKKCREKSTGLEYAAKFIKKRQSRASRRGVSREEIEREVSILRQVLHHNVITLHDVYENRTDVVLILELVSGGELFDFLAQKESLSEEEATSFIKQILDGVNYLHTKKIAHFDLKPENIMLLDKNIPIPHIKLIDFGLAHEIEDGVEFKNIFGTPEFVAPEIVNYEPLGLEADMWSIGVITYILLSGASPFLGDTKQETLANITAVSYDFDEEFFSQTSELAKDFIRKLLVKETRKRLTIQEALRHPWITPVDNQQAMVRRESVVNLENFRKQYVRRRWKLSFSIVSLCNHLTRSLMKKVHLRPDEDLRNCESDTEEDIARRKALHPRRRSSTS
Experiment [5] addresses Tyrosine-protein kinase ABL2 (Homo sapiens) (UniProt P42684). Nature of the experiment: Inhibition of human ABL2/ARG using EAIYAAPFAKKK as substrate at 1 uM in presence of 32P-ATP by Hotspot assay relative to control; values are per cent of control.
In experiment [6] the target is NT-3 growth factor receptor (Homo sapiens) (UniProt Q16288). Briefly: Inhibition of human TRKC using poly[Glu:Tyr] (4:1) as substrate at 1 uM in presence of 32P-ATP by Hotspot assay relative to control; values are per cent of control.
Sequence of NT-3 growth factor receptor (Homo sapiens) (Q16288 32-839 limits assumed): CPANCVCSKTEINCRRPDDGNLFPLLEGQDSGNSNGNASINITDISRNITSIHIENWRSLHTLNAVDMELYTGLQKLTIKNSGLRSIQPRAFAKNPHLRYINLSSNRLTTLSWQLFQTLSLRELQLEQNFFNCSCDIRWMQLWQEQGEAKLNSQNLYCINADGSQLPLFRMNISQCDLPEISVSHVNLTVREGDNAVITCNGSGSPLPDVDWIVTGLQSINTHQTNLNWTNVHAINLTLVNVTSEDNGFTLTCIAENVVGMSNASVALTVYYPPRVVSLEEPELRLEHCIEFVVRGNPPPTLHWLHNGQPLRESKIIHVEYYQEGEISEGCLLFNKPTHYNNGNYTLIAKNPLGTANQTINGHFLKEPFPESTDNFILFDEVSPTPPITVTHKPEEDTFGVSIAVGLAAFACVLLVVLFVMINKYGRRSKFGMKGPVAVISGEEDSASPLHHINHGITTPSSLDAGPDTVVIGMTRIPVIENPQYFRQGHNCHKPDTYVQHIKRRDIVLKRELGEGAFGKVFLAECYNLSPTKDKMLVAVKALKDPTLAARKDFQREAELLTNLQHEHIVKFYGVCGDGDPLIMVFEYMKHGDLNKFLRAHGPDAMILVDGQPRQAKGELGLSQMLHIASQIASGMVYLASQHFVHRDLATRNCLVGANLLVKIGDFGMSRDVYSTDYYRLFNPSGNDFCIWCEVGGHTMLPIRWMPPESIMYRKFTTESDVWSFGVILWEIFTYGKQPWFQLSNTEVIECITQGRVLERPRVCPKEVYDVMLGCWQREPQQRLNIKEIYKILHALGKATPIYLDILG
Experiment [7] deals with Homeodomain-interacting protein kinase 2 (Homo sapiens) (UniProt Q9H2X6). Briefly: Inhibition of human HIPK2 using myelin basic protein as substrate at 1 uM in presence of 32P-ATP by Hotspot assay relative to control; values are per cent of control.
Sequence of Homeodomain-interacting protein kinase 2 (Homo sapiens) (Q9H2X6 whole entry, looked up): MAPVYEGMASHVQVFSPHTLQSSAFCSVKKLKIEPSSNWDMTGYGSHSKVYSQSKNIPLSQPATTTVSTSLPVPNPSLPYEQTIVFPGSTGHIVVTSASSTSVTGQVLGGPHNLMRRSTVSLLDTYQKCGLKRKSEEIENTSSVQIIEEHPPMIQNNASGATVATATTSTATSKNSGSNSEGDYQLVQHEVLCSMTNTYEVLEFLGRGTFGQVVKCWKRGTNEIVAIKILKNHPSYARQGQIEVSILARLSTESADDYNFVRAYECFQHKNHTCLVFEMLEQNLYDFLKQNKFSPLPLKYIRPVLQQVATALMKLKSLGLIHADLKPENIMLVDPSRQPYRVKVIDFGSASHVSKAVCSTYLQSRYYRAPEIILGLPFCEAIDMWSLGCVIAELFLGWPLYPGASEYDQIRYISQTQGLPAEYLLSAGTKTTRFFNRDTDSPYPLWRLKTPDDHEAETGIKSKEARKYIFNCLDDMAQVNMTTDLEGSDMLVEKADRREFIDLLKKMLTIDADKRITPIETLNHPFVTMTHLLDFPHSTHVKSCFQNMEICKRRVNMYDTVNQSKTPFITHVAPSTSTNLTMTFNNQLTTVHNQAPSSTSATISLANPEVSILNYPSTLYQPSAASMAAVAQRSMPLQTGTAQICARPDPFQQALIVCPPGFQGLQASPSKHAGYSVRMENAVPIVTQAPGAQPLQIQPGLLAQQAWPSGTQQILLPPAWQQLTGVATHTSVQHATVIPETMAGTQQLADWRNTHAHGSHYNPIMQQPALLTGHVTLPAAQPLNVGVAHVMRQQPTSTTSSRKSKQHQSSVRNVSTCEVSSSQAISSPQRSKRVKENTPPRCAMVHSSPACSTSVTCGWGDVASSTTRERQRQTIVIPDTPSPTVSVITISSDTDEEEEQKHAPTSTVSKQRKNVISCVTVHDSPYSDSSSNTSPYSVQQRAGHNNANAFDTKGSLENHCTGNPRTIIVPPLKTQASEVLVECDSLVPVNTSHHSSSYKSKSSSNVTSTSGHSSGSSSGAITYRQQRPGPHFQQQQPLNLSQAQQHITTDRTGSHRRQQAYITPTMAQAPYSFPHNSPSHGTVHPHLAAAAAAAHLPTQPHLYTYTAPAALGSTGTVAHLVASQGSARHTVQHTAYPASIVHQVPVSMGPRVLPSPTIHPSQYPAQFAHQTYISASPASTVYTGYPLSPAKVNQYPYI
Experiment [8] addresses T3, Interleukin-1 receptor-associated kinase 4 (Homo sapiens) (UniProt Q9NWZ3).
T3 sequence (whole entry): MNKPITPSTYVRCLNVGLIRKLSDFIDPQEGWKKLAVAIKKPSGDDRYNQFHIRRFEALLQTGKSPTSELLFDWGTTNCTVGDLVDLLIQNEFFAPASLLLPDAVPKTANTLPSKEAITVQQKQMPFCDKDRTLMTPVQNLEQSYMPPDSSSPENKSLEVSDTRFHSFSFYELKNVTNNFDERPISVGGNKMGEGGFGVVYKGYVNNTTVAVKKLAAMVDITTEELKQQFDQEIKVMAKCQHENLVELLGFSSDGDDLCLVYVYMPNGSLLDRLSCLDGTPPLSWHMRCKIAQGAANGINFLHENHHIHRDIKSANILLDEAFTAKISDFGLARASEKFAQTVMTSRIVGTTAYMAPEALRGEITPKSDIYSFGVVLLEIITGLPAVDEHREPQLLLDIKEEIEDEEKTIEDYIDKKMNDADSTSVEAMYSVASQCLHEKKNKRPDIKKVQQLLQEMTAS
Nature of the experiment: Inhibition of human IRAK4 using myelin basic protein as substrate at 1 uM in presence of 32P-ATP by Hotspot assay relative to control; values are per cent of control.

The species named for experiment [9] is Homo sapiens. Briefly: Inhibition of human TAOK2/TAO1 using myelin basic protein as substrate at 1 uM in presence of 32P-ATP by Hotspot assay relative to control; values are per cent of control.
In experiment [10] the target is Mitogen-activated protein kinase kinase kinase 11 (Homo sapiens) (UniProt Q16584). Briefly: Inhibition of human MLK3/MAP3K11 using myelin basic protein as substrate at 1 uM in presence of 32P-ATP by Hotspot assay relative to control; values are per cent of control.
Sequence of Mitogen-activated protein kinase kinase kinase 11 (Homo sapiens) (Q16584 whole entry, looked up): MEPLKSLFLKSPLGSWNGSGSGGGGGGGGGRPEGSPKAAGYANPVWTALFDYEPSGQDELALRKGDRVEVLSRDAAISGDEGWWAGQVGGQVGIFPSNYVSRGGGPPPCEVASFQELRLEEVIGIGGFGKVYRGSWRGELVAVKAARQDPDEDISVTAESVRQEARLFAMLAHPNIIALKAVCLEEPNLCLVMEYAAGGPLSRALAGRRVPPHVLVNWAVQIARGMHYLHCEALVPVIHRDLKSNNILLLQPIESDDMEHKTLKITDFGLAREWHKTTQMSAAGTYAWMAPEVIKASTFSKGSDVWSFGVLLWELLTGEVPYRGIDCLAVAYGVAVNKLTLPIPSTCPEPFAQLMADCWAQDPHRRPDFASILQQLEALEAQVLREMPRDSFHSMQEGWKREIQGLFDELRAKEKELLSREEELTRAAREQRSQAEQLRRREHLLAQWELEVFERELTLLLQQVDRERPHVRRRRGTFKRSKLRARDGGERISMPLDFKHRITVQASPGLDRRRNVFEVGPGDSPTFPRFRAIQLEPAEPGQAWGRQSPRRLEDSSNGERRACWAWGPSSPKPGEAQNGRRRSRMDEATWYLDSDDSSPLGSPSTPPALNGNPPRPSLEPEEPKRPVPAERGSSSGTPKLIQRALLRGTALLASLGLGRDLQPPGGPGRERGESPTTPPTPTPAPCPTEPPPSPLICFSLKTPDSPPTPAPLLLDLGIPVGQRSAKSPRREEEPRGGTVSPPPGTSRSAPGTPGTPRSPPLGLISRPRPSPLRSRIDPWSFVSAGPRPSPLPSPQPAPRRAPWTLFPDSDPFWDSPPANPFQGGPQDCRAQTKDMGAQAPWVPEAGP
Experiment [11] has as its target Serine/threonine-protein kinase MARK2 (Homo sapiens) (UniProt Q7KZI7). Briefly: Inhibition of human MARK2/PAR-1Ba using KKKVSRSGLYRSPSMPENLNRPR as substrate at 1 uM in presence of 32P-ATP by Hotspot assay relative to control; values are per cent of control.

Molecules are shown by their SMILES.

Sequence of SRSF protein kinase 1 (Homo sapiens) (Q96SB4 whole entry): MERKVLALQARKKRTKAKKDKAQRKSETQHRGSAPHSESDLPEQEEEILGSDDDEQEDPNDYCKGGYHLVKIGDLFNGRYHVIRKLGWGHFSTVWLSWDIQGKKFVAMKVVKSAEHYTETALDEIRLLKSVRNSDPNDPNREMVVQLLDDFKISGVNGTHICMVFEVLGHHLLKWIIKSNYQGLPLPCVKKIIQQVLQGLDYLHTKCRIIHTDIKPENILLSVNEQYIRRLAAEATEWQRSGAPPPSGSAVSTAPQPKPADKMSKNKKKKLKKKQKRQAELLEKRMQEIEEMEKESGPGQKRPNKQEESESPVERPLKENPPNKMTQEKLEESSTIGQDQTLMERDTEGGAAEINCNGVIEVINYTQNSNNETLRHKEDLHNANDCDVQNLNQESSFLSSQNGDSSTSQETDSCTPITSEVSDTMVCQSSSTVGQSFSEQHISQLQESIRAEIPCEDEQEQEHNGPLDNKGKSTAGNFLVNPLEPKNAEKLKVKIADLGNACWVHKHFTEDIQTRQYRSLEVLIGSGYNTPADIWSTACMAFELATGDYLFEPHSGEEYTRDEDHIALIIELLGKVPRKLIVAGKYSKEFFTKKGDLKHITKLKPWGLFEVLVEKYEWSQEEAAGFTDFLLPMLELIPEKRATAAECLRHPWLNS
Sequence of Tyrosine-protein kinase ABL2 (Homo sapiens) (P42684 whole entry): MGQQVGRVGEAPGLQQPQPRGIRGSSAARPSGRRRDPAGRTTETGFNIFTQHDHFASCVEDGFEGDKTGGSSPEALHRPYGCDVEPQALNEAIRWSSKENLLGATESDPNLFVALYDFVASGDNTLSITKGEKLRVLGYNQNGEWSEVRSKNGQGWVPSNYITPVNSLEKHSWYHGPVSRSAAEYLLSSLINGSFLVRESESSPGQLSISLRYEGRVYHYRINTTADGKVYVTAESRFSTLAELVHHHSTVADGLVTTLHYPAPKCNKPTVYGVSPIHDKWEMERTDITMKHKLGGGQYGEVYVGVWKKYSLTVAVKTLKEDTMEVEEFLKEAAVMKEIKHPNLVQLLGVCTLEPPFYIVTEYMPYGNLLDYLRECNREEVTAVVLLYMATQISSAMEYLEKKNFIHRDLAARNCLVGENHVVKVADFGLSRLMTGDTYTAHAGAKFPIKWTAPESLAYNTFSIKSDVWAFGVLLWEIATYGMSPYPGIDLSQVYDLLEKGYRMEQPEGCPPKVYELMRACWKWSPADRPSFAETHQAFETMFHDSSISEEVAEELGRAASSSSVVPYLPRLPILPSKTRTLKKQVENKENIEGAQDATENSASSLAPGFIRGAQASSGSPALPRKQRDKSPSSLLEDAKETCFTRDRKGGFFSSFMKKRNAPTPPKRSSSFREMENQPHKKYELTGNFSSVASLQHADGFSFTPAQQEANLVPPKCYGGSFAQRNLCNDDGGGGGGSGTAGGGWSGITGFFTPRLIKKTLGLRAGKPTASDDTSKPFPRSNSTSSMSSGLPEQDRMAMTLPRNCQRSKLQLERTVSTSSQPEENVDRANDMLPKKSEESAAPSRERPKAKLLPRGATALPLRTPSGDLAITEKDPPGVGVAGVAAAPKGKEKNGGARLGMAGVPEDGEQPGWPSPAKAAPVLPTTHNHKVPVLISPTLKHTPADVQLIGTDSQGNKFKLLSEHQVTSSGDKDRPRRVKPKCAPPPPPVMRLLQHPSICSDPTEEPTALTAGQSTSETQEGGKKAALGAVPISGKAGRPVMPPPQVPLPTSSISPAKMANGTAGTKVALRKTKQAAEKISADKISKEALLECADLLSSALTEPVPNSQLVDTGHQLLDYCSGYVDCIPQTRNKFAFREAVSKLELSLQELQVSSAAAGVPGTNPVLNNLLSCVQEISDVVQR

Consider `CC(C)S(=O)(=O)c1ccc2nccc(Nc3ccc4scnc4c3)c2c1`, for which the residual activity in experiment [1] worked out at 104%; in experiment [2], 101%; in [3] it was 91.3%; in experiment [4], 104%; in [5], 12%; in experiment [6], 87.2%. In addition, the residual activity in experiment [7] stood at 101%; in experiment [8] it was 97.5%; in experiment [9] it was 93.4%; in experiment [10] it was 81.1%; in experiment [11], 96.6%.
Take `CNC(=O)c1ccc2c(c1)ncn2-c1ccc(CC(=O)OC(C)(C)C)cc1`: the residual activity came to 112% in experiment [1]; 97.7% in experiment [2]; 98.5% in [3]; 96.3% in [4]; 78.2% in experiment [5]; 98% in [6]. For the same compound, the residual activity in [7] is 88.1%; in [8], 102%; in [9] it was 102%; in experiment [10], 85.4%; in experiment [11], 95.6%.
With `Cc1cc(-c2cnc(N)c3c(-c4ccc5scnc5c4)csc23)n(C)n1`, the residual activity in experiment [1] stood at 95.3%; in [2] it was 101%; in experiment [3] it was 92.9%; in experiment [4], 82.4%; in experiment [5], 7.38%; in experiment [6] it was 95.3%. Moreover, the residual activity in experiment [7] was 95.9%; in experiment [8] it was 99.7%; in experiment [9] it was 97.1%; in [10], 69.5%; in [11], 95.2%.
